One test has as its system A549. Description: Antiproliferative activity against human A549 cells assessed as survival at 10 uM by sulforhodamine B assay. The test is classed as functional. The settings on record: read-out: Activity. In general terms: Sulforhodamine B stains cellular protein and so reports cell mass.
The test system of another test is AGS. Description: Antiproliferative activity against human AGS cells assessed as survival at 10 uM by sulforhodamine B assay. The format is functional. The settings on record: read-out: Activity.
Another test deals with HepG2. The experiment in a line: Antiproliferative activity against human HepG2 cells assessed as survival at 10 uM by sulforhodamine B assay. The format is functional. The settings on record: read-out: Activity.
Another test deals with HT-29. The experiment in a line: Antiproliferative activity against human HT-29 cells assessed as survival at 10 uM by sulforhodamine B assay. The test is classed as functional. The settings on record: read-out: Activity.
The test system of the next test is PC-3. The experiment in a line: Antiproliferative activity against human PC3 cells assessed as survival at 10 uM by sulforhodamine B assay. The test is classed as functional. The settings on record: read-out: Activity.
The target of test [1] is T1, Nitric oxide synthase, inducible (Mus musculus, UniProt P29477).
T1 sequence (P29477 whole entry): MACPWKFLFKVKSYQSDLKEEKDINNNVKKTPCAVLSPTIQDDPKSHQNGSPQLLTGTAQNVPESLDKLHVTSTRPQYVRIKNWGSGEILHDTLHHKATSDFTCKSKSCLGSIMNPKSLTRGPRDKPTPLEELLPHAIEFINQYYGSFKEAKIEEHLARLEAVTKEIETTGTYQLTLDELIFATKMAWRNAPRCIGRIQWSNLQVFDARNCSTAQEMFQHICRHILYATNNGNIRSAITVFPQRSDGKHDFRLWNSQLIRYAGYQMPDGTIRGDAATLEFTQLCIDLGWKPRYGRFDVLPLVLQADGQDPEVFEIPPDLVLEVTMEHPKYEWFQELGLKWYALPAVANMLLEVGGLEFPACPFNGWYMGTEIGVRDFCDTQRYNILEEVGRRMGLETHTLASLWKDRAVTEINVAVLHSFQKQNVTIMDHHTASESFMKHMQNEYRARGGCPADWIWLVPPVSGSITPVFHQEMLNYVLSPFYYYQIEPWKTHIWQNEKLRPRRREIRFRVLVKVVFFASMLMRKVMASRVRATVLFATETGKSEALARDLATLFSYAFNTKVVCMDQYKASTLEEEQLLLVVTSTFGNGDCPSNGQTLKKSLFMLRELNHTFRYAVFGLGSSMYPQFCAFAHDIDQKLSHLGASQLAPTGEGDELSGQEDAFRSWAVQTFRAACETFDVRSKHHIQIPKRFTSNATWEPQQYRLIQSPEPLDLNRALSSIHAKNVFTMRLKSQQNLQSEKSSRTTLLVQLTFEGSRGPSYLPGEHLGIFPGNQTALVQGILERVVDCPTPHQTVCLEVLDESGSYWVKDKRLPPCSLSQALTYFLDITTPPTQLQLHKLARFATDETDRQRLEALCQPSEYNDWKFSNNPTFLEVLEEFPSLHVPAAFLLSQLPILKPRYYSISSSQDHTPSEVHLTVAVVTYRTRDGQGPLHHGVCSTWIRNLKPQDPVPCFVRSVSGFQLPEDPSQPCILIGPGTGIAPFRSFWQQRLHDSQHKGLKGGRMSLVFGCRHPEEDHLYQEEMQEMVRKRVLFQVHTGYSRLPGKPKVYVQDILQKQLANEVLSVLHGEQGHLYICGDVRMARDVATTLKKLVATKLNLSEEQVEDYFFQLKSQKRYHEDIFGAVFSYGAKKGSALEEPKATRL
The experiment in a line: Inhibition of iNOS in mouse ANA1 cells. The format is cell-based.

Test [2] addresses Proto-oncogene tyrosine-protein kinase Src (Homo sapiens, UniProt P12931). Description: Inhibition of cSrc.

The structures appear in SMILES notation.

Sequence of Proto-oncogene tyrosine-protein kinase Src (P12931 2-536 limits assumed): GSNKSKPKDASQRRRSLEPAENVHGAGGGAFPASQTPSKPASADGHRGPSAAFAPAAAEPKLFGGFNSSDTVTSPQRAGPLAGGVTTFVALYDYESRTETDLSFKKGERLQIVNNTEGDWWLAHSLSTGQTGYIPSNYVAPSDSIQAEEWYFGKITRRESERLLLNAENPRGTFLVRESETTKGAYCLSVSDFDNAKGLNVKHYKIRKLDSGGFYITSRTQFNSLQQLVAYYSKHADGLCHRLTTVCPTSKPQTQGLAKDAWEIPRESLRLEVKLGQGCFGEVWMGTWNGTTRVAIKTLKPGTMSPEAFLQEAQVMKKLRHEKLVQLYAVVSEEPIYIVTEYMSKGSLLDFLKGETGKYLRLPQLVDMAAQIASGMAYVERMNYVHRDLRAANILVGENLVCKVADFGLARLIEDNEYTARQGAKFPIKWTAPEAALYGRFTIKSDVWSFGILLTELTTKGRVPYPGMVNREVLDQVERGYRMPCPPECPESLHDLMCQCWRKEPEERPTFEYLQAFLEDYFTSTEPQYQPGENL

Take `COc1cc(Nc2c(C#N)cnc3cc(OCCCN4CCN(C)CC4)c(OC)cc23)c(Cl)cc1Cl` [BOSUTINIB]: the viability at 10 µM in the test with A549 turned out to be 9.32%; in the test on AGS, 3.8%; in the test on HepG2, 9.2%; in the test with HT-29, 2.84%; in the test on PC-3 it was 7.81%.
Turning to `CCN(CC)CCCOc1cc2ncc(C#N)c(Nc3ccc4nc(N)sc4c3)c2cc1C`, the IC50 turned out to be 46.8 µM in test [1] and 0.042 µM in test [2].
Turning to `Cc1cc2c(Nc3ccc4nc(N)sc4c3)c(C#N)cnc2cc1OCCN1CCCCC1`, the viability at 10 µM stood at 55.4% in the test with A549; 61% in the test with AGS; 55.4% with HepG2; 42.7% with HT-29; 77.7% with PC-3. For the same compound, the results for the IC50 in test [1] and in test [2] were 26.7 µM and 0.0348 µM, respectively.
With `Cc1cc2c(Nc3ccc4nc(N)[nH]c4c3)c(C#N)cnc2cc1OCCCN1CCCC1`, the half-maximal inhibitory concentration (IC50) came to 24.8 µM in test [1] and 0.159 µM in test [2].
Turning to `Cc1cc2c(Nc3ccc4nc(N)sc4c3)c(C#N)cnc2cc1OCCCN1CC(C)CC(C)C1` (configuration not stated), the viability at 10 µM in the test on A549 was 53.6%; with AGS it was 65.5%; with HepG2 it was 42.2%; in the test on HT-29, 60.6%; with PC-3, 63%. For the same compound, the results for the IC50 in test [1] and in test [2] were 10.5 µM and 0.267 µM, respectively.
As for `COc1cc2c(Nc3ccc4nc(N)sc4c3)c(C#N)cnc2cc1OCCCN1CCNCC1`, the IC50 turned out to be 105 µM in test [1] and 0.0207 µM in test [2].
In the case of `Cc1cc2c(Nc3ccc4nc(N)sc4c3)c(C#N)cnc2cc1OCCCN1CCN(C)CC1`, the viability at 10 µM with A549 amounted to 64.1%; in the test with AGS it was 68.1%; with HepG2, 40.5%; with HT-29 it was 31.6%; in the test with PC-3, 59.5%. The IC50 in test [1] stood at 37.1 µM; in test [2] it was 0.0506 µM.
In the case of `Cc1cc2c(Nc3ccc4nc(N)[nH]c4c3)c(C#N)cnc2cc1OCCCN(C)C`, the values for the half-maximal inhibitory concentration (IC50) in test [1] and in test [2] were 13.2 µM and 0.143 µM, respectively.
The like results for `Cc1cc2c(Nc3ccc4nc(N)sc4c3)c(C#N)cnc2cc1OCCCN1CC(C)NC(C)C1` (configuration not stated) were, in that order, 89.1 µM and 0.0366 µM.
The like results for `Cc1cc2c(Nc3ccc4nc(N)sc4c3)c(C#N)cnc2cc1OCCCN1CCOCC1` were, in that order, 31.8 µM and 0.0811 µM.
For `Cc1cc2c(Nc3ccc4nc(N)sc4c3)c(C#N)cnc2cc1OCCCN1CCC(C)CC1` the same measures were 12.7 µM and 0.0534 µM.
In the case of `Cc1cc2c(Nc3ccc4nc(N)sc4c3)c(C#N)cnc2cc1OCCCN1CCNCC1`, the IC50 in test [1] was 17.3 µM; in test [2], 0.129 µM.

For orientation: IC50 means the concentration at which inhibition is half-maximal. Low readings indicate greater potency in that assay, high ones weaker potency in that assay.

Source of the values: ChEMBL document CHEMBL1152265, “The design, synthesis and biological evaluation of 7-alkoxy-4-heteroarylamino-3-cyanoquinolines as dual inhibitors of c-Src and iNOS” (Bioorg Med Chem Lett, 2008).
